Results as given in patent US7498406B2, “Substantially cell membrane impermeable compound and use thereof” (priority 1999, dated 2009).

Assays:
HT1080 = assay: Viability of cultured cells, 72 hr; assay type: cell-based, human; conditions: 5% FCS, 0 to 1 mM
Method: (§1) FIG. 19. Effect of GSAO on proliferation of non-endothelial cells. 15,000 BxPC-3 (part A), HT1080 (part B), 3T3 (part C) or BVSM (part D) cells per well were seeded into gelatinised 24-well culture plates and allowed to attach for 24 hr. The media was then replaced with DMEM containing 0 to 1 mM GSAO or GSAA and either 5% BCS (part D) or 5% FCS (parts A, B and C). Cells were cultured for 72 hr and then dispersed and counted. The dotted lines indicate the cell number in control wells containing DMEM and 2% BCS (part D) or 2% FCS (parts A, B and C) which represented no to limited proliferation. The data points and errors represent the mean and range of duplicate wells.
(§2) BCE (Folkman et al. 1979), BAE, BxPC-3 (ATCC, Bethesda, Md.), HT1080 (Jiang et al., 1999), 3T3 (ATCC, Bethesda, Md.) and BVSM (Hogg et al., 1997) cells were harvested and cultured as indicated. […] Cells were cultured for 0 to 72 hr in 10% CO2 at 37° C. then dispersed in trypsin/EDTA (GibcoBRL, Granc Island, N.Y.), resuspended in Coulter balanced electrolyte solution and counted with a Z1 Coulter counter (Coulter Corp., Miami, Fla.) in all experiments there were two control wells containing DMEM with 1% GPS and either 5% BCS for BCE cells, 2% BCS for BAE and BVSM cells, or 2% FCS for BxPC-3, HT1080 and 3T3 cells. […]

BxPc3 = assay: Viability of cultured cells, 72 hr; assay type: cell-based, human; conditions: 5% FCS, 0 to 1 mM
Method: as §1, §2

[1] = system: primary HIV isolates (HN11, HN68 or HN70); assay: Infection of PBMC's by primary HIV isolates, p24 antigen; assay type: cell-based; conditions: 10 μM, 7 days
Method: (§3) PBMC's (1×10^6 per mL) were incubated with GSAA or GSAO (10 μM) for 30 minutes at 37° C. and then with primary HIV isolates (HN11, HN68 or HN70 at 50 TCID50 per 10^6 cells) for 2 hours at 37° C. Cells were washed and incubated in complete medium containing GSAA or GSAO (10 μM) at 5% CO2 and 37° C. for up to 7 days. At the indicated times the conditioned medium was collected and assayed for p24 antigen and cell number and cell viability was determined.
(§4) The primary HIV isolates, HN11, HN68 and HN70, were provided by Dr. Hassan Naif, Centre for Virus Research, Westmead Millennium Institute, NSW, Australia. […] The blood was diluted 1:2 with PBS, layered onto Ficoll-Hypaque (35 mL blood onto 15 mL Ficoll-Hypaque) in 50 mL Falcon tubes and centrifuged at 400 g for 20 minutes at 20° C. The PBMC's were collected and pelleted at 1200 rpm for 10 minutes to remove platelets, resuspended at 2×10^6 cells per mL in RPMI containing 20% horse serum (Gibco BRL, Gaithersburg, Md.), 10 μg per mL phytohemagglutinin-M (PHA-M, Boehringer Mannheim Biochemica, Mannheim, Germany) and […] interleukin-2 (Sigma, St. Louis, Mo.) and incubated for 2 days at 5% CO2 and 37° C., PBMC (1×10^6 per mL) were incubated with GSAO or GSAA (10 μM) for 30 minutes at 37° C. in serum-free media. Virus was added at 50 TCID50 per 10^6 cells for 2 hours at 37° C.. […]

PBMC = assay: Cell number and cell viability in the PBMC HIV assay; conditions: 10 μM
Method: as §3, §4

[2] = Stability of the trivalent arsenicals towards oxidation; assay type: physicochemical; conditions: slowed by removal of O2, lower pH or glycine
Description: This oxidation can be slowed in three ways; removal of dissolved O2 from solutions containing the arsenoxides, lowering the pH of these solutions, or by addition of glycine to the solutions. Glycine is routinely used to prevent oxidation of the stock solutions of the trivalent organoarsenicals. Similar to the reaction between 2,3-dimercaptopropanol and R—As(OH)2 in which a 5-membered dithioarsonite (XI) is formed, reaction of glycine with R—As(OH)2 is thought to give a 5-membered cyclic 1,3,2-oxazarsolidin-5-one (XII).

SMILES | Viability IC50 (HT1080) | Viability IC50 (BxPc3) | infection of PBMC's by primary HIV isolates [1] | proliferation of PBMC's (PBMC) | viability of PBMC's (PBMC; 7 days) | stability of solutions towards oxidation [2]
N[C@@H](CCC(=O)N[C@@H](CSCC(=O)Nc1ccc([As](=O)(O)O)cc1)C(=O)NCC(=O)O)C(=O)O [GSAA, 4-(N-(S-glutathionylacetyl)amino)phenylarsonic acid, reference compound] | no significant effect | no significant effect |  |  |  | 
NC(CCC(=O)NC(CSCC(=O)Nc1ccc([As]=O)cc1)C(=O)NCC(=O)O)C(=O)O (stereo not drawn) [GSAO, 4-(N-(S-glutathionylacetyl)amino)-phenylarsenoxide] |  |  | blocked infection | inhibited proliferation | no effect of cell viability | deactivated over time by oxidation
